# Test results as given in ChEMBL document CHEMBL3044963, “Synthesis and in vitro anticancer activity of novel thiazacridine derivatives” (Med Chem Res, 2013).
# Assays:
# [1] = system: SF-295; test: Anticancer activity against Homo sapiens (human) SF295 cells assessed as inhibition of cell survival after 72 hr by MTT assay; assay type: functional, cell-based; details: SF-295, 72 h
# [2] = system: HCT-8; test: Anticancer activity against Homo sapiens (human) HCT8 cells assessed as growth inhibition at 0.3 ug/ml after 72 hr by MTT assay; assay type: functional; details: HCT-8, 72 h, read-out: GI
# [3] = system: MDA-MB-435; test: Anticancer activity against Homo sapiens (human) MDA-MB-435 cells assessed as inhibition of cell survival after 72 hr by MTT assay; assay type: functional, cell-based; details: MDA-MB-435, 72 h
# [4] = system: SF-295; test: Anticancer activity against Homo sapiens (human) SF295 cells assessed as growth inhibition at 0.3 ug/ml after 72 hr by MTT assay; assay type: functional; details: SF-295, 72 h, read-out: GI
# [5] = system: MDA-MB-435; test: Anticancer activity against Homo sapiens (human) MDA-MB-435 cells assessed as growth inhibition at 0.3 ug/ml after 72 hr by MTT assay; assay type: functional; details: MDA-MB-435, 72 h, read-out: GI
# [6] = system: MDA-MB-435; test: Anticancer activity against Homo sapiens (human) MDA-MB-435 cells assessed as growth inhibition at 25 ug/ml after 72 hr by MTT assay; assay type: functional; details: MDA-MB-435, 72 h, read-out: GI
# [7] = system: HL-60; test: Anticancer activity against Homo sapiens (human) HL60 cells assessed as inhibition of cell survival after 72 hr by MTT assay; assay type: functional, cell-based; details: HL-60, 72 h
# [8] = system: HCT-8; test: Anticancer activity against Homo sapiens (human) HCT8 cells assessed as growth inhibition at 25 ug/ml after 72 hr by MTT assay; assay type: functional; details: HCT-8, 72 h, read-out: GI
# [9] = system: HCT-8; test: Anticancer activity against Homo sapiens (human) HCT8 cells assessed as inhibition of cell survival after 72 hr by MTT assay; assay type: functional, cell-based; details: HCT-8, 72 h
# [10] = system: SF-295; test: Anticancer activity against Homo sapiens (human) SF295 cells assessed as growth inhibition at 25 ug/ml after 72 hr by MTT assay; assay type: functional; details: SF-295, 72 h, read-out: GI
Structure (SMILES),IC50 [1],inhibition of growth at 0.3 µg/mL [2],IC50 [3],inhibition of growth at 0.3 µg/mL [4],inhibition of growth at 0.3 µg/mL [5],inhibition of growth at 25 µg/mL [6],IC50 [7],inhibition of growth at 25 µg/mL [8],IC50 [9],inhibition of growth at 25 µg/mL [10]
COc1cccc2c1C(=O)c1c(O)c3c(c(O)c1C2=O)C[C@@](O)(C(=O)CO)C[C@@H]3O[C@H]1C[C@H](N)[C@H](O)[C@H](C)O1 [DOXORUBICIN],0.48 mg/L,95.2%,0.24 mg/L,91.1%,93.6%,–,–,–,–,–
O=C1S/C(=C\c2ccc(Br)cc2)C(=O)N1Cc1c2ccccc2nc2ccccc12,> 25 mg/L,–,> 25 mg/L,–,–,85.3%,19.5 mg/L,96.6%,20.6 mg/L,62.2%
CS(=O)(=O)c1ccc(/C=C2\SC(=O)N(Cc3c4ccccc4nc4ccccc34)C2=O)cc1,> 25 mg/L,–,> 25 mg/L,–,–,12.9%,> 25 mg/L,64.3%,> 25 mg/L,44.3%
COc1ccc(/C=C2\SC(=O)N(Cc3c4ccccc4nc4ccccc34)C2=O)cc1,> 25 mg/L,–,> 25 mg/L,–,–,84.2%,> 25 mg/L,86.7%,19.3 mg/L,59.5%
COc1ccc(/C=C2\SC(=O)N(Cc3c4ccccc4nc4ccccc34)C2=O)cc1Br,> 25 mg/L,–,> 25 mg/L,–,–,53%,> 25 mg/L,72.5%,> 25 mg/L,48%
O=C1CSC(=O)N1Cc1c2ccccc2nc2ccccc12,> 25 mg/L,–,> 25 mg/L,–,–,0%,> 25 mg/L,42%,> 25 mg/L,32.8%
O=C1S/C(=C\c2ccc(Cl)cc2)C(=O)N1Cc1c2ccccc2nc2ccccc12,> 25 mg/L,–,> 25 mg/L,–,–,0%,> 25 mg/L,37.8%,> 25 mg/L,31.3%
O=C1S/C(=C\c2c3ccccc3nc3ccccc23)C(=O)N1Cc1c2ccccc2nc2ccccc12,4.44 mg/L,–,7.01 mg/L,–,–,95.9%,> 25 mg/L,92.4%,4.45 mg/L,76.7%
Cc1ccc(/C=C2\SC(=O)N(Cc3c4ccccc4nc4ccccc34)C2=O)cc1,> 25 mg/L,–,> 25 mg/L,–,–,31.2%,> 25 mg/L,51.3%,> 25 mg/L,29.9%
